# From patent publication US6235736A, “3-anilino-2-cycloalkenone derivatives” (Nikken Chemicals Co., Ltd., priority 1997, dated 2001)
# How the values were obtained:
# Type IV PDE = test: PDE IV inhibitory activity (isozyme partially purified from rat neutrophils, 3H-cAMP substrate); type: biochemical; settings: rat neutrophil PDE IV, 30° C., 30 minutes, read-out: PDE IV inhibiting action IC50
# Description: Type I, III, IV, and V PDE isozymes were prepared to study the PDE inhibitory activities of and selectivities with the compound of the invention [Trends Pharmacol Sci., 12, 19-27 (1991)]. Type I PDE was purchased from Sigma Corp. Type III, IV, and V PDE isozymes were partially purified from platelets (Type III and V) or neutrophils (Type IV) collected from rats. Each enzyme source was homogenized in a buffer (pH 6.5) containing 20 mM bisTris, 2 mM EDTA (i.e., ethlenediamine tetraacetate), 2-mercaptoethanol, 0.001 mM pepstatin and 0.01 mM leupeptin and was centrifuged at 30000×G for 30 minutes to obtain a supernatant, which was applied to an ion exchange column (Q-sepharose first flow, Pharmacia Corp.) and was eluted with 0 to 1M sodium acetate. Partially purified isozymes were identified by observing the inhibitory effects of conventional inhibitors.
# Each PDE isozyme and the test compound dissolved in DMSO (i.e., dimethylsulfoxide) were added to 50 mM Tris--HCI buffer containing 5 mM magnesium chloride. ^3 H-cAMP (for type III and IV PDE) or ^3 H-cGMP (for type I and V PDE) were added as substrates and were reacted at 30° C. for 30 minutes. The reaction was terminated by placing the test tube in boiling water of 100° C. for 5 minutes. The nucleotides formed by PDE were broken down to ^3 H-adenosine or ^3 H-guanosine by 5'-nucleotidase. The substrate and reaction product were separated through an ion-exchange column (i.e., QAE sephadex, Pharmacia Corp.)
# The eluted ^3 -H-nucleoside was measured for its radioactivity by a liquid scintillation counter. The inhibitory activities of the compound of the present invention are shown by the IC50 value (M). Further, the inhibitory activities of the test samples against type I, III, and V PDE are 1/10 or less than that against Type IV PDE.
# [1] = system: TPA induced ear edema in mouse; test: TPA induced mouse ear edema assay; type: in vivo, mouse (male ICR); settings: 0.1 mg applied to right ear immediately after TPA; 6 hour
# Description: Male ICR mice, 5 week old, were divided into groups of seven to eight. 2 μg of TPA (phorbor 12-ministate; Sigma Co.) in 20 μl acetone was applied to the inner and outer surface of right ear of each mouse to cause a reaction. 0.1 mg of compound was dissolved in 20 μl of a tetrahydrofuran-methanol mixture (mixture ratio 1:1) and the solution (20 μl) applied to the right ear immediately after TPA treatment. After 6 hour, the animals were sacrificed and right ear was punched out (.phi. […]) and weighed. The effect of comppund.was calculated as % inhibition as follows: [formula]
Compound,IC50 (Type IV PDE) [µM],% Inhibition of ear edema [1] [%]
"COc1ccc(N(Cc2ccncc2)C2=CC(=O)CC2)cc1OC1Cc2ccccc2C1 [Compound No. 78, 3-[3-(2-indanyloxy)-4-methoxy-N-(4-pyridylmethyl)anilino]-2-cyclopenten-1-one]",1.3,82.2
"COc1ccc(N(Cc2ccccc2)C2=CC(=O)CCC2)cc1OC1Cc2ccccc2C1 [Compound No. 66, 3-[N-benzyl-3-(2-indanyloxy)-4-methoxyanilino]-2-cyclohexen-1-one]",0.57,72.8
"COc1ccc(NC2=C(C)C(=O)CC2)cc1OCCc1ccccc1 [Compound No. 12, 3-(4-methoxy-3-phenethyloxyanilino)-2-methyl-2-cyclopenten-1-one]",0.71,52.5
"COc1ccc(N(Cc2ccccc2)C2=CC(=O)CC2)cc1OC1Cc2ccccc2C1 [Compound No. 77, 3-[N-benzyl-3-(2-indanyloxy)-4-methoxyanilino]-2-cyclopenten-1-one]",0.91,50.9
"COc1ccc(N(Cc2ccccc2)C2=CC(=O)CCC2)cc1O[C@@H]1C[C@H]2CC[C@@H]1C2 (relative stereo) [Compound No. 84, 3-[N-benzyl-3-[rel(1R,2R,4S)-bicyclo[2.2. 1]hept-2-yloxy]-4-methoxyanilino]-2-cyclohexen-1-one]",1.4,71.8
"COc1ccc(N(Cc2ccncc2)C2=CC(=O)CCC2)cc1O[C@@H]1C[C@H]2CC[C@@H]1C2 (racemic) [Compound No. 85, 3-[3-[(1RS,2RS,4SR)-bicyclo[2.2. 1]hept-2-yloxy]4-methoxy-N-(4-pyridylmethyl)anilino]-2-cyclohexen-1-one]",3.6,70.3
"COc1ccc(N(Cc2ccc3ccccc3c2)C2=CC(=O)CC2)cc1OC1CCCCC1 [Compound No. 57, 3-[3-cyclohexyloxy-4-methoxy-N-(2-naphthylmethyl)anilino]-2-cyclopenten-1-one]",1.9,89.7
"COc1ccc(N(Cc2ccccn2)C2=CC(=O)CCC2)cc1OC1Cc2ccccc2C1 [Compound No. 68, 3-[3-(2-indanyloxy)-4-methoxy-N-(2-pyridylmethyl)anilino]-2-cyclohexen-1-one]",0.49,52.0
"COc1ccc(NC2=C(Cc3ccccc3)C(=O)CC2)cc1OC1CCCC1 [Compound No. 33, 2-benzyl-3-(3-cyclopentyloxy-4-methoxyanilino)-2-cyclopenten-1-one]",0.4,81.7
"COc1ccc(N(Cc2ccc3ccccc3c2)C2=CC(=O)CC2)cc1OC1CCCC1 [Compound No. 62, 3-[3-cyclopentyloxy-4-methoxy-N-(2-naphthylmethyl)anilino]-2-cyclopenten-1-one]",1.2,78.8
"COc1ccc(N(Cc2ccccc2)C2=CC(=O)CC2)cc1OC1CCCC1 [Compound No. 30, 3-(N-benzyl-3-cyclopentyloxy-4-methoxyanilino)-2-cyclopenten-1-one]",2.6,78.4
"CCCCOc1cc(NC2=CC(=O)CC2)ccc1OC [Compound No. 17, 3-(3-butoxy-4-methoxyanilino)-2-cyclopenten-1-one]",14,57.1
"COc1ccc(NC2=CC(=O)CCC2)cc1O[C@@H]1C[C@H]2CC[C@@H]1C2 (relative stereo) [Compound No. 83, 3-[3-[rel(1R,2R,4S)-bicyclo[2.2. 1]hept-2-yloxy]-4-methoxyanilino]-2-cyclohexen-1-one]",1.6,70.5
"COc1ccc(N(Cc2cccnc2)C2=CC(=O)CC2)cc1OC1CCCC1 [Compound No. 63, 3-[3-cyclopentyloxy-4-methoxy-N-(3-pyridylmethyl)anilino]2-cyclopenten-1-one]",5.3,75.4
COc1ccc(N(C)C2=CC(=O)CC2)cc1OC1Cc2ccccc2C1 [Compound No. 76],0.13,52.7
"COc1ccc(NC2=C(C)C(=O)CCC2)cc1OC1CCCC1 [Compound No. 75, 3-(3-cyclopentyloxy-4-methoxyanilino)-2-methyl-2-cyclohexen-1-one]",0.47,64.8
"COc1ccc(NC2=C(C)C(=O)CC2)cc1OCC1(c2ccccc2)CC1 [Compound No. 50, 3-[4-methoxy-3-[(1-phenylcyclopropyl)methoxy]anilino]-2-methyl-2-cyclopenten-1-one]",0.62,62.6
"CCC1=C(Nc2ccc(OC)c(O[C@@H]3C[C@H]4CC[C@@H]3C4)c2)CCC1=O (racemic) [Compound No. 45, 3-[3-[(1RS,2RS,4SR)-bicyclo[2.2. 1]hept-2-yloxy]-4-methoxyanilino]-2-ethyl-2-cyclopenten-1-one]",0.08,75.3
"COc1ccc(NC2=CC(=O)CCC2)cc1OC1CCCC1 [Compound No. 2, 3-(3-cyclopentyloxy-4-methoxyanilino)-2-cyclohexen-1-one]",3.7,65.0
"COc1ccc(NC2=C(C)C(=O)CCC2)cc1OC1Cc2ccccc2C1 [Compound No. 48, 3-[3-(2-indanyloxy)-4-methoxyanilino]-2-methyl-2-cyclohexen-1-one]",0.082,53.8
"COc1ccc(NC2=C(C)C(=O)CC2)cc1OCCC1Cc2ccccc2C1 [Compound No. 35, 3-[3-[2-(2-indanyl)ethoxy]-4-methoxyanilino]-2-methyl-2-cyclopenten-1-one]",0.29,52.5
"COc1ccc(N(C)C2=CC(=O)CCC2)cc1OC1CCCC1 [Compound No. 27, 3-(3-cyclopentyloxy-4-methoxy-N-methylanilino)-2-cyclohexen-1-one]",1.9,86.4
"COc1ccc(N(Cc2ccccc2)C2=CC(=O)CC2)cc1OC1CCCCC1 [Compound No. 56, 3-(N-benzyl-3-cyclohexyloxy-4-methoxyanilino)-2-cyclopenten-1-one]",5.5,86.1
"COc1ccc(N(Cc2ccccn2)C2=CC(=O)CC2)cc1OC1CCCC1 [Compound No. 61, 3-[3-cyclopentyloxy-4-methoxy-N-(2-pyridylmethyl)anilino]-2-cyclopenten-1-one]",3.2,66.2
"COc1ccc(N(C)C2=CC(=O)CCC2)cc1OC1Cc2ccccc2C1 [Compound No. 65, 3-[3-(2-indanyloxy)-4-methoxy-N-methylanilino]-2-cyclohexen-1-one]",0.29,52.5
"COc1ccc(NC2=C(Br)C(=O)CC2)cc1OC1CCCC1 [Compound No. 7, 2-bromo-3-(3-cyclopentyloxy-4-methoxyanilino)-2-cyclopenten-1-one]",0.28,55.8
"COc1ccc(N(Cc2ccncc2)C2=CC(=O)CC2)cc1OC1CCCC1 [Compound No. 28, 3-[3-cyclopentyloxy-4-methoxy-N-(4-pyridylmethyl)anilino]-2-cyclopenten-1-one]",4.3,71.5
"COc1ccc(N(Cc2ccc3ccccc3c2)C2=CC(=O)CC2)cc1OC1Cc2ccccc2C1 [Compound No. 79, 3-[3-(2-indanyloxy)-4-methoxy-N-(2-naphthylmethyl)anilino]-2-cyclopenten-1-one]",0.73,89.0
"COc1ccc(NC2=CC(=O)CCC2)cc1OC1Cc2ccccc2C1 [Compound No. 19, 3-[3-(2-indanyloxy)-4-methoxyanilino]-2-cyclohexen-1-one]",1.8,76.3
"COc1ccc(N(Cc2ccc3ccccc3c2)C2=CC(=O)CCC2)cc1OC1Cc2ccccc2C1 [Compound No. 67, 3-[3-(2-indanyloxy)-4-methoxy-N-(2-naphthylmethyl)anilino]-2-cyclohexen-1-one]",3.8,60.8
